According to PubChem BioAssay AID248 (DTP/NCI, 2004):
Toxic doses and inconclusive results are not listed. No stated cut-off is given here; in the data, active means T/C of 150% or more; inactive means T/C below 125%.

Tested on: L1210 leukemia ip in BDF1 mice, survival T/C
Test: NCI In Vivo Anticancer Drug Screen. Data for tumor model L1210 Leukemia (intraperitoneal) in B6D2F1 (BDF1) mice
Settings: endpoint: mean survival time, higher = longer survival
Method in brief: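 Transplanted-tumor mice were given test agent; controls received vehicle only. Survival readings from the two groups were divided (treated over control).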

[1] = dose: 100.0 mg/kg/injection, schedule: Q01DX009 (ip), vehicle: Klucel (hydroxypropylcellulose) (HPC)
[2] = dose: 200.0 mg/kg/injection, schedule: Q01DX009 (ip), vehicle: Klucel (hydroxypropylcellulose) (HPC)
[3] = dose: 100.0 mg/kg/injection, schedule: Q04DX003 (ip), vehicle: Klucel (hydroxypropylcellulose) (HPC)
[4] = dose: 200.0 mg/kg/injection, schedule: Q04DX003 (ip), vehicle: Klucel (hydroxypropylcellulose) (HPC)
[5] = dose: 400.0 mg/kg/injection, schedule: Q04DX003 (ip), vehicle: Klucel (hydroxypropylcellulose) (HPC)
[6] = dose: 400.0 mg/kg/injection, schedule: Q01DX009 (ip), vehicle: Klucel (hydroxypropylcellulose) (HPC)
[7] = dose: 100.0 mg/kg/injection, schedule: Q01DX001 (ip), vehicle: saline
[8] = dose: 200.0 mg/kg/injection, schedule: Q01DX001 (ip), vehicle: saline
[9] = dose: 400.0 mg/kg/injection, schedule: Q01DX001 (ip), vehicle: saline
[10] = dose: 100.0 mg/kg/injection, schedule: Q01DX009 (ip), vehicle: saline with Tween-80
[11] = dose: 100.0 mg/kg/injection, schedule: Q04DX003 (ip), vehicle: saline with Tween-80
[12] = dose: 200.0 mg/kg/injection, schedule: Q01DX009 (ip), vehicle: saline with Tween-80
[13] = dose: 200.0 mg/kg/injection, schedule: Q04DX003 (ip), vehicle: saline with Tween-80
[14] = dose: 400.0 mg/kg/injection, schedule: Q01DX009 (ip), vehicle: saline with Tween-80
[15] = dose: 400.0 mg/kg/injection, schedule: Q04DX003 (ip), vehicle: saline with Tween-80
[16] = dose: 100.0 mg/kg/injection, schedule: Q04DX003 (ip), vehicle: saline
[17] = dose: 100.0 mg/kg/injection, schedule: Q01DX009 (ip), vehicle: saline
[18] = dose: 200.0 mg/kg/injection, schedule: Q01DX009 (ip), vehicle: saline
[19] = dose: 75.0 mg/kg/injection, schedule: Q01DX001 (ip), vehicle: saline
[20] = dose: 150.0 mg/kg/injection, schedule: Q01DX001 (ip), vehicle: saline
[21] = dose: 50.0 mg/kg/injection, schedule: Q01DX009 (ip), vehicle: saline with Tween-80

Measured: T/C

O=S1(=O)CC23CC=CCC2(CC=CC3)C1 (centres undefined)
inactive: dose: 50.0 mg/kg/injection, schedule: Q01DX009 (ip), vehicle: Klucel (hydroxypropylcellulose) (HPC) 100 % of control | [1] 97 % of control | [2] 96 % of control

NN=C1C(Cl)=C(Cl)C(Cl)=C1Cl
inactive: [3] 93 % of control | [4] 93 % of control | [5] 98 % of control

Nc1ccc2c(c1)Cc1cc(Br)ccc1-2
inactive: [1] 103 % of control | [3] 96 % of control | [2] 101 % of control | [4] 102 % of control | [6] 101 % of control | [5] 108 % of control

CC(C)(C)NC(=O)NCc1cccc(Cl)c1
inactive: dose: 100.0 mg/kg/injection, schedule: Q04DX002 (ip), vehicle: Klucel (hydroxypropylcellulose) (HPC) 100 % of control | dose: 200.0 mg/kg/injection, schedule: Q04DX002 (ip), vehicle: Klucel (hydroxypropylcellulose) (HPC) 107 % of control | dose: 400.0 mg/kg/injection, schedule: Q04DX002 (ip), vehicle: Klucel (hydroxypropylcellulose) (HPC) 96 % of control

CCOP(=S)(Nc1cccc(C(F)(F)F)c1)OCC
inactive: [7] 102 % of control | [8] 100 % of control | [9] 96 % of control

CN1C(=O)c2c(Cl)c(Cl)c(Cl)c(Cl)c2C1=O
inactive: dose: 222.0 mg/kg/injection, schedule: Q01DX Z (ip), vehicle: methylcellulose (MC) 105 % of control | dose: 333.0 mg/kg/injection, schedule: Q01DX Z (ip), vehicle: methylcellulose (MC) 105 % of control | dose: 500.0 mg/kg/injection, schedule: Q01DX Z (ip), vehicle: methylcellulose (MC) 98 % of control

CCCCCCCCCCCCCCCCN(C)S(=O)(=O)c1ccc2sc(SC)[n+](C)c2c1 (tested in a mixture with another compound)
inactive: [10] 94 % of control | [11] 98 % of control | [12] 94 % of control | [13] 102 % of control | [14] 102 % of control | [15] 96 % of control

NC(CSS(=O)(=O)O)=NCC1CC2CCC1C2 (centres undefined)
inactive: dose: 6.25 mg/kg/injection, schedule: Q04DX002 (ip), vehicle: saline with Tween-80 100 % of control | dose: 12.5 mg/kg/injection, schedule: Q04DX002 (ip), vehicle: saline with Tween-80 110 % of control | dose: 25.0 mg/kg/injection, schedule: Q04DX002 (ip), vehicle: saline with Tween-80 106 % of control

CC(C)C1(c2ccsc2)NC(=O)NC1=O (centres undefined)
inactive: [7] 94 % of control | [8] 100 % of control | [9] 91 % of control

CCOC(=O)C1CC1Cc1ccccc1 (centres undefined)
inactive: [10] 101 % of control | [16] 100 % of control | [12] 102 % of control | dose: 200.0 mg/kg/injection, schedule: Q04DX003 (ip), vehicle: saline 105 % of control | [14] 104 % of control | dose: 400.0 mg/kg/injection, schedule: Q04DX003 (ip), vehicle: saline 94 % of control

CCOc1cc2ccc3c4cc(OC)c(OC)cc4c[n+](C)c3c2cc1OCC
inactive: dose: 100.0 mg/kg/injection, schedule: Q04DX002 (ip), vehicle: saline with Tween-80 98 % of control

CNC(=O)Nc1ncnn1Cc1ccccc1
inactive: [17] 92 % of control | [18] 97 % of control

CCCCCCC(C)O[Si](C)Cc1ccccc1 (centres undefined)
inactive: dose: 100.0 mg/kg/injection, schedule: Q04DX003 (ip), vehicle: other 95 % of control | dose: 200.0 mg/kg/injection, schedule: Q04DX003 (ip), vehicle: other 97 % of control | dose: 400.0 mg/kg/injection, schedule: Q04DX003 (ip), vehicle: other 94 % of control

COc1cc(CNC2CCCCC2)ccc1O
inactive: [19] 97 % of control | [20] 110 % of control

COC(=O)/C=C(\C)Nc1ccc(C(=O)C2CCCCC2)cc1
inactive: dose: 100.0 mg/kg/injection, schedule: Q01DX001 (ip), vehicle: other 90 % of control | dose: 200.0 mg/kg/injection, schedule: Q01DX001 (ip), vehicle: other 95 % of control | dose: 400.0 mg/kg/injection, schedule: Q01DX001 (ip), vehicle: other 96 % of control

COc1ccc(NC(=O)C2C3C=CC(C3)C2C(=O)O)cc1 (centres undefined)
inactive: [21] 98 % of control | [10] 100 % of control | [12] 100 % of control

COCC=C(C)C
inactive: [21] 106 % of control | [10] 92 % of control | [12] 95 % of control

CC[N+](CC)(CCOC(=O)C1C2CC3OC(=O)C1C3C2)Cc1ccccc1 (centres undefined)
inactive: dose: 12.5 mg/kg/injection, schedule: Q04DX003 (ip), vehicle: saline 89 % of control | dose: 25.0 mg/kg/injection, schedule: Q04DX003 (ip), vehicle: saline 89 % of control | dose: 50.0 mg/kg/injection, schedule: Q04DX003 (ip), vehicle: saline 106 % of control | [16] 93 % of control

Cc1ccc(S(=O)(=O)N=[N+]=[N-])cc1
inactive: dose: 100.0 mg/kg/injection, schedule: Q01DX001 (ip), vehicle: Klucel (hydroxypropylcellulose) (HPC) 95 % of control | [1] 107 % of control | [3] 95 % of control | dose: 200.0 mg/kg/injection, schedule: Q01DX001 (ip), vehicle: Klucel (hydroxypropylcellulose) (HPC) 105 % of control | [2] 107 % of control | [4] 104 % of control | dose: 400.0 mg/kg/injection, schedule: Q01DX001 (ip), vehicle: Klucel (hydroxypropylcellulose) (HPC) 100 % of control | [6] 105 % of control | [5] 107 % of control

CCC1SC(CC)(CC(C)C)C(=O)NC1=O (centres undefined)
inactive: dose: 100.0 mg/kg/injection, schedule: Q01DX001 (ip), vehicle: carboxymethylcellulose (CMC) 102 % of control | dose: 200.0 mg/kg/injection, schedule: Q01DX001 (ip), vehicle: carboxymethylcellulose (CMC) 94 % of control | dose: 400.0 mg/kg/injection, schedule: Q01DX001 (ip), vehicle: carboxymethylcellulose (CMC) 94 % of control

[O]=[V]([OH])([OH])[OH]
inactive: dose: 2.0 mg/kg/injection, schedule: Q01DX015 (ip), vehicle: saline 101 % of control | dose: 4.0 mg/kg/injection, schedule: Q01DX015 (ip), vehicle: saline 103 % of control | dose: 8.0 mg/kg/injection, schedule: Q01DX015 (ip), vehicle: saline 103 % of control | dose: 12.5 mg/kg/injection, schedule: Q01DX001 (ip), vehicle: saline 113 % of control | dose: 16.0 mg/kg/injection, schedule: Q01DX015 (ip), vehicle: saline 108 % of control | dose: 25.0 mg/kg/injection, schedule: Q01DX001 (ip), vehicle: saline 96 % of control | dose: 32.0 mg/kg/injection, schedule: Q01DX015 (ip), vehicle: saline 103 % of control | dose: 50.0 mg/kg/injection, schedule: Q01DX001 (ip), vehicle: saline 98 % of control | dose: 64.0 mg/kg/injection, schedule: Q01DX015 (ip), vehicle: saline 88 % of control

Cc1ccc(S(=O)(=O)N/N=C/c2ccc([N+](=O)[O-])s2)cc1
inactive: [3] 96 % of control | [4] 94 % of control | [5] 96 % of control

O=c1[nH]c(=O)n(CC(O)c2ccc(Cl)s2)cc1F (centres undefined)
inactive: [10] 100 % of control | [11] 100 % of control | [12] 101 % of control | [13] 96 % of control | [14] 95 % of control | [15] 97 % of control

C=C1CC(CCCCCC2CC(=C)C(=O)O2)OC1=O (centres undefined)
inactive: dose: 12.5 mg/kg/injection, schedule: Q04DX002 (ip), vehicle: saline 94 % of control | dose: 25.0 mg/kg/injection, schedule: Q04DX002 (ip), vehicle: saline 94 % of control | dose: 50.0 mg/kg/injection, schedule: Q04DX002 (ip), vehicle: saline 102 % of control

O=c1c2ccccc2nnn1-c1ccccc1Cl
inactive: [17] 105 % of control | [18] 103 % of control | dose: 400.0 mg/kg/injection, schedule: Q01DX009 (ip), vehicle: saline 89 % of control

Cn1c(Cc2ccccc2)c(-c2ccccc2)c(-c2ccccc2)c1Cc1ccccc1
inactive: [19] 94 % of control | [20] 88 % of control | dose: 300.0 mg/kg/injection, schedule: Q01DX001 (ip), vehicle: saline 93 % of control
